Legend:
[1] = tested on: Thy-Tau22 mice; experiment: Immunohistochemical measurement of tau pathology (NFT burden) in hippocampal CA1; format: in vivo, mouse; settings: Thy-Tau22, 0.5 mg/kg vs untreated, FIG. 5
From the text: Wild-type C57BL/6J animals of 3 months were purchased at Charles Rivers Laboratories (France) and were allow to acclimate in the animal facility for at least one week before any treatment. Thy-Tau22 transgenic colonies (C57BL/6J genetic background) were obtained by crossing heterozygous Thy-Tau22 males with C57BL/6 WT females. […] In this model, a progressive development of NFT is observed in the hippocampus and amygdala, which parallels behavioral impairments (Schindowski et al., 2006). Furthermorever, in the hippocampus, hyper- and abnormally phosphorylated Tau species accumulate within the somato-dendritic area (Schindowski et al., 2006). For animal treatment, animals were randomly distributed and the compound of Formula I was given in the drinking water at final concentration of 0.5 or 1 mg/kg. Drinking bottles were changed once per week, volume consumption was measured along the treatment period. Food consumption and body weight were assessed. […] Quantification of labeled neurons was achieved using the NIH-Image J software and expressed in arbitrary units (A.U). The burden of NFT in the hippocampal CA1 was investigated by immunohistochemistry and quantification. […]

[2] = tested on: Tau proteins of Thy-Tau22 animals (hippocampus); experiment: 1D SDS-PAGE and Western-blot of Tau expression, catabolites and phosphorylation in hippocampus; format: in vivo, mouse; settings: treated vs untreated, FIG. 6
From the text: Wild-type C57BL/6J animals of 3 months were purchased at Charles Rivers Laboratories (France) and were allow to acclimate in the animal facility for at least one week before any treatment. Thy-Tau22 transgenic colonies (C57BL/6J genetic background) were obtained by crossing heterozygous Thy-Tau22 males with C57BL/6 WT females. […] In this model, a progressive development of NFT is observed in the hippocampus and amygdala, which parallels behavioral impairments (Schindowski et al., 2006). Furthermorever, in the hippocampus, hyper- and abnormally phosphorylated Tau species accumulate within the somato-dendritic area (Schindowski et al., 2006).
For animal treatment, animals were randomly distributed and the compound of Formula I was given in the drinking water at final concentration of 0.5 or 1 mg/kg. Drinking bottles were changed once per week, volume consumption was measured along the treatment period. Food consumption and body weight were assessed. In wild-type animals the pilot study of drug treatment was performed for one month to establish the innocuousness of the treatment with the compound of Formula I. This was based on the physiological, social and behavioural assessments. Thy-Tau22 males were treated for 4 months starting at 3 month old. All protocols were approved by the local ethics committee (n^∘342012, CEEA).
After behavioral assessment, blood was collected in 1.5 mL polypropylene tubes (Eppendorf, France), mice were sacrificed by cervical dislocation to avoid any modifications instrumental to anesthesia (Lefreche et al. 2012). Hippocampi and cortices were dissected and snap frozen in 1.5 mL tubes (Eppendorf). Tissue was homogenized in Tris-HCl buffer (10 mM pH 7.4) containing 320 mM sucrose, protease inhibitors (Complete mini EDTA-free, Roche) sonicated and spun at 12,000×g for 10 min at 4° C. The supernatant was recovered, protein concentration was achieved using the BCA Protein quantification assay kit (Pierce) according to the manufacturer instruction. The supernatant was further processed for biochemical analyses or kept at −80° C. For 1D or 2D gels, the same lysis buffer was used. Thus, equal amount protein in Tris buffer were added with a solution containing 7M urea, 2M thiourée with 2% SDS and sonicated at 60 Hz 30 pulses.
For the western-blot analysis of Tau proteins, SDS-PAGE was performed according to the manufacturer's instructions using Bis-Tris 4-12% gradient acrylamide gel (NuPage® Bis-Tris PreCast 12 wells, Life Technologies). The apparent molecular weights were calibrated using the molecular weight markers (Novex and Magic Marks, Life Technologies). Electrophoresis was performed under a continuous tension of 100V/per gel for 1 h. Proteins were reversibly stained with Ponceau Red to check the quality of the efficacy of protein transfer. For western-blotting, the membranes were blocked in 25 mM Tris-HCl pH 8.0, 150 mM NaCl, 0.1% Tween-20 (v/v) (TBS-T) and 5% (w/v) of skimmed milk (TBS-M) for 30 min and they were incubated overnight at 4° C. the primary antibody. The nitrocellulose membrane is rinsed three times by gentle shaking in TBS-T during 10 min each. […]
Brain proteins (of hippocampus) from untreated and Compound I⋅HCl treated thy-tau22 animals were resolved by 1D SDS-PAGE and Tau proteins were labeled with Pan-Tau antibodies (N-ter, C-ter). Catabolites detected with these antibodies are indicated as f-Nter and f-Cter. […]

[3] = ratio phospho-epitope/total hTau

`CC(C)CN(CCCN1CCN(CCCNc2c3c(nc4ccccc24)CCCC3)CC1)CC(C)C.Cl` [Compound I⋅HCl, N-[3-(4-{3-[Bis(2-methylpropyl)amino]propyl}piperazin-1-yl)propyl]-1,2,3,4-tetrahydroacridin-9-amine hydrochloride] was tested, and the AT8 immunostaining [1] was “no significant differences”, the “average surface of staining after AT100 staining” value [1] was “significantly reduced” and the “Tau C-terminal catabolites products at 43 kDa” value [2] was “significantly increased”. For the same compound, the “Tau N-terminal catabolites” value [2] was “significantly decreased”, the “Tau phosphorylation at other phospho-sites (pSer199, pSer262, pSer422, Tau-1)” value [2] was “not significantly modified” and the “Tau phosphorylation at phospho-site 396” value [2, 3] was “significant reduction”. The “Tau phosphorylation at phospho-site 404” value [2, 3] was “significant reduction”.
